Source: PubChem BioAssay (NCI)
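These data come from cells grown in 96-well plates and exposed to compound for 48 hours at five concentrations. TGI marks complete inhibition of growth.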

How the values were obtained:
Assay in all cases: DTP human tumour cell line panel, 48 h
DMS 114 small cell lung = system: DMS 114 small cell lung
EKVX NSCLC = system: EKVX NSCLC
SF-268 CNS = system: SF-268 CNS
HCT-116 colon = system: HCT-116 colon
RXF-631 renal = system: RXF-631 renal
UO-31 renal = system: UO-31 renal
RXF 393 renal = system: RXF 393 renal
SNB-75 CNS = system: SNB-75 CNS
OVCAR-3 ovarian = system: OVCAR-3 ovarian
LOX IMVI melanoma = system: LOX IMVI melanoma
OVCAR-8 ovarian = system: OVCAR-8 ovarian
SF-295 CNS = system: SF-295 CNS
M19-MEL melanoma = system: M19-MEL melanoma
HCC-2998 colon = system: HCC-2998 colon
TK-10 renal = system: TK-10 renal
HOP-92 NSCLC = system: HOP-92 NSCLC
A549 NSCLC = system: A549 NSCLC
HT29 colon = system: HT29 colon
RPMI-8226 leukemia = system: RPMI-8226 leukemia
IGROV1 ovarian = system: IGROV1 ovarian
HOP-18 NSCLC = system: HOP-18 NSCLC
UACC-62 melanoma = system: UACC-62 melanoma
CAKI-1 renal = system: CAKI-1 renal
MOLT-4 leukemia = system: MOLT-4 leukemia
XF 498 CNS = system: XF 498 CNS
U251 CNS = system: U251 CNS
LXFL 529 NSCLC = system: LXFL 529 NSCLC
KM20L2 colon = system: KM20L2 colon
OVCAR-4 ovarian = system: OVCAR-4 ovarian
ACHN renal = system: ACHN renal
SF-539 CNS = system: SF-539 CNS
SK-OV-3 ovarian = system: SK-OV-3 ovarian
NCI-H23 lung = system: NCI-H23 lung
DLD-1 colon = system: DLD-1 colon
SR leukemia = system: SR leukemia
UACC-257 melanoma = system: UACC-257 melanoma
SK-MEL-28 melanoma = system: SK-MEL-28 melanoma
HOP-62 NSCLC = system: HOP-62 NSCLC
NCI-H226 lung = system: NCI-H226 lung
OVCAR-5 ovarian = system: OVCAR-5 ovarian
KM12 colon = system: KM12 colon
786-0 renal = system: 786-0 renal
SN12C renal = system: SN12C renal
HL-60(TB) leukemia = system: HL-60(TB) leukemia
NCI-H460 lung = system: NCI-H460 lung
HCT-15 colon = system: HCT-15 colon
DMS 273 small cell lung = system: DMS 273 small cell lung
SK-MEL-5 melanoma = system: SK-MEL-5 melanoma
MALME-3M melanoma = system: MALME-3M melanoma
K-562 leukemia = system: K-562 leukemia
SW-620 colon = system: SW-620 colon
M14 melanoma = system: M14 melanoma
SNB-19 CNS = system: SNB-19 CNS
A498 renal = system: A498 renal
CCRF-CEM leukemia = system: CCRF-CEM leukemia
COLO 205 colon = system: COLO 205 colon
NCI-H522 lung = system: NCI-H522 lung
SNB-78 CNS = system: SNB-78 CNS
SK-MEL-2 melanoma = system: SK-MEL-2 melanoma

## CCCC(=O)c1c(NOC2OCC(OC(C)=O)C(OC(C)=O)C2OC(C)=O)nc(OC)n(C)c1=O (stereo not given)
DMS 114 small cell lung
  TGI: > 100 µM
EKVX NSCLC
  TGI: > 100 µM
SF-268 CNS
  TGI: > 100 µM
HCT-116 colon
  TGI: > 100 µM
RXF-631 renal
  TGI: > 100 µM
UO-31 renal
  TGI: > 100 µM
RXF 393 renal
  TGI: > 100 µM
SNB-75 CNS
  TGI: > 100 µM
OVCAR-3 ovarian
  TGI: > 100 µM
LOX IMVI melanoma
  TGI: > 100 µM
OVCAR-8 ovarian
  TGI: > 100 µM
SF-295 CNS
  TGI: > 100 µM
M19-MEL melanoma
  TGI: > 100 µM
HCC-2998 colon
  TGI: > 100 µM
TK-10 renal
  TGI: > 100 µM
HOP-92 NSCLC
  TGI: > 100 µM
A549 NSCLC
  TGI: > 100 µM
HT29 colon
  TGI: > 100 µM
RPMI-8226 leukemia
  TGI: > 100 µM
IGROV1 ovarian
  TGI: > 100 µM
HOP-18 NSCLC
  TGI: > 100 µM
UACC-62 melanoma
  TGI: > 100 µM
CAKI-1 renal
  TGI: > 100 µM
MOLT-4 leukemia
  TGI: > 100 µM
XF 498 CNS
  TGI: > 100 µM
U251 CNS
  TGI: > 100 µM
LXFL 529 NSCLC
  TGI: > 100 µM
KM20L2 colon
  TGI: > 100 µM
OVCAR-4 ovarian
  TGI: > 100 µM
ACHN renal
  TGI: > 100 µM
SF-539 CNS
  TGI: > 100 µM
SK-OV-3 ovarian
  TGI: > 100 µM
NCI-H23 lung
  TGI: > 100 µM
DLD-1 colon
  TGI: > 100 µM
SR leukemia
  TGI: > 100 µM
UACC-257 melanoma
  TGI: > 100 µM
SK-MEL-28 melanoma
  TGI: > 100 µM
HOP-62 NSCLC
  TGI: > 100 µM
NCI-H226 lung
  TGI: > 100 µM
OVCAR-5 ovarian
  TGI: > 100 µM
KM12 colon
  TGI: > 100 µM
786-0 renal
  TGI: > 100 µM
SN12C renal
  TGI: > 100 µM
HL-60(TB) leukemia
  TGI: 3.09 µM
NCI-H460 lung
  TGI: > 100 µM
HCT-15 colon
  TGI: > 100 µM
DMS 273 small cell lung
  TGI: > 100 µM
SK-MEL-5 melanoma
  TGI: > 100 µM
MALME-3M melanoma
  TGI: > 100 µM
K-562 leukemia
  TGI: 36 µM
SW-620 colon
  TGI: > 100 µM
M14 melanoma
  TGI: > 100 µM
SNB-19 CNS
  TGI: > 100 µM
A498 renal
  TGI: > 100 µM
CCRF-CEM leukemia
  TGI: 19.1 µM
COLO 205 colon
  TGI: > 100 µM

## O=[N+]([O-])c1ccc(-c2noc(-c3ccccc3)c2C2=NCCN2)cc1
NCI-H522 lung
  TGI: > 100 µM
EKVX NSCLC
  TGI: > 100 µM
SF-268 CNS
  TGI: > 100 µM
HCT-116 colon
  TGI: > 100 µM
RXF-631 renal
  TGI: > 100 µM
UO-31 renal
  TGI: > 100 µM
RXF 393 renal
  TGI: > 100 µM
SNB-75 CNS
  TGI: > 100 µM
OVCAR-3 ovarian
  TGI: 90.8 µM
LOX IMVI melanoma
  TGI: > 100 µM
OVCAR-8 ovarian
  TGI: > 100 µM
SF-295 CNS
  TGI: > 100 µM
M19-MEL melanoma
  TGI: > 100 µM
HCC-2998 colon
  TGI: > 100 µM
SNB-78 CNS
  TGI: > 100 µM
A549 NSCLC
  TGI: > 100 µM
HT29 colon
  TGI: > 100 µM
RPMI-8226 leukemia
  TGI: > 100 µM
IGROV1 ovarian
  TGI: > 100 µM
HOP-18 NSCLC
  TGI: > 100 µM
UACC-62 melanoma
  TGI: > 100 µM
CAKI-1 renal
  TGI: > 100 µM
MOLT-4 leukemia
  TGI: > 100 µM
XF 498 CNS
  TGI: > 100 µM
U251 CNS
  TGI: > 100 µM
LXFL 529 NSCLC
  TGI: > 100 µM
KM20L2 colon
  TGI: > 100 µM
OVCAR-4 ovarian
  TGI: > 100 µM
ACHN renal
  TGI: > 100 µM
SF-539 CNS
  TGI: > 100 µM
DLD-1 colon
  TGI: > 100 µM
SR leukemia
  TGI: > 100 µM
UACC-257 melanoma
  TGI: > 100 µM
SK-MEL-28 melanoma
  TGI: > 100 µM
HOP-62 NSCLC
  TGI: > 100 µM
NCI-H226 lung
  TGI: > 100 µM
OVCAR-5 ovarian
  TGI: > 100 µM
KM12 colon
  TGI: > 100 µM
786-0 renal
  TGI: > 100 µM
SN12C renal
  TGI: > 100 µM
HL-60(TB) leukemia
  TGI: > 100 µM
NCI-H460 lung
  TGI: > 100 µM
HCT-15 colon
  TGI: > 100 µM
SK-MEL-5 melanoma
  TGI: > 100 µM
SK-MEL-2 melanoma
  TGI: > 100 µM
MALME-3M melanoma
  TGI: > 100 µM
K-562 leukemia
  TGI: > 100 µM
SW-620 colon
  TGI: > 100 µM
M14 melanoma
  TGI: > 100 µM
SNB-19 CNS
  TGI: > 100 µM
CCRF-CEM leukemia
  TGI: > 100 µM
COLO 205 colon
  TGI: > 100 µM

## Cn1ncc2c(Nc3ccc(Cl)cc3)c3ccccc3nc21
DMS 114 small cell lung
  TGI: 34.5 µM
NCI-H522 lung
  TGI: 37.2 µM
EKVX NSCLC
  TGI: > 10 µM
SF-268 CNS
  TGI: 51.5 µM
HCT-116 colon
  TGI: 26.4 µM
RXF-631 renal
  TGI: 33.5 µM
UO-31 renal
  TGI: > 10 µM
SNB-75 CNS
  TGI: 29.2 µM
OVCAR-3 ovarian
  TGI: 46.2 µM
LOX IMVI melanoma
  TGI: 32.7 µM
OVCAR-8 ovarian
  TGI: 30.3 µM
SF-295 CNS
  TGI: 36 µM
M19-MEL melanoma
  TGI: 37.2 µM
HCC-2998 colon
  TGI: 39.7 µM
TK-10 renal
  TGI: 77.3 µM
SNB-78 CNS
  TGI: 74.6 µM
HOP-92 NSCLC
  TGI: 39.1 µM
A549 NSCLC
  TGI: 43.2 µM
HT29 colon
  TGI: 27.1 µM
RPMI-8226 leukemia
  TGI: 93.9 µM
IGROV1 ovarian
  TGI: 54.7 µM
HOP-18 NSCLC
  TGI: 69.5 µM
UACC-62 melanoma
  TGI: 31.6 µM
CAKI-1 renal
  TGI: 80.6 µM
MOLT-4 leukemia
  TGI: 63.2 µM
XF 498 CNS
  TGI: > 10 µM
U251 CNS
  TGI: 29.3 µM
LXFL 529 NSCLC
  TGI: 34.7 µM
OVCAR-4 ovarian
  TGI: 29.2 µM
ACHN renal
  TGI: 55.9 µM
SF-539 CNS
  TGI: 30.1 µM
SK-OV-3 ovarian
  TGI: 54.9 µM
NCI-H23 lung
  TGI: > 10 µM
DLD-1 colon
  TGI: 30.3 µM
SR leukemia
  TGI: > 100 µM
UACC-257 melanoma
  TGI: 31.7 µM
SK-MEL-28 melanoma
  TGI: 29.7 µM
HOP-62 NSCLC
  TGI: 31.9 µM
NCI-H226 lung
  TGI: 35.4 µM
OVCAR-5 ovarian
  TGI: 47.5 µM
KM12 colon
  TGI: 40.9 µM
786-0 renal
  TGI: 32.4 µM
SN12C renal
  TGI: 58.3 µM
HL-60(TB) leukemia
  TGI: 73.6 µM
NCI-H460 lung
  TGI: 52.7 µM
HCT-15 colon
  TGI: 40 µM
DMS 273 small cell lung
  TGI: 35.5 µM
SK-MEL-5 melanoma
  TGI: 26.7 µM
SK-MEL-2 melanoma
  TGI: 33.7 µM
MALME-3M melanoma
  TGI: 39.7 µM
K-562 leukemia
  TGI: 56.7 µM
SW-620 colon
  TGI: 39.1 µM
M14 melanoma
  TGI: 28.3 µM
SNB-19 CNS
  TGI: 43.9 µM
A498 renal
  TGI: 29.7 µM
CCRF-CEM leukemia
  TGI: 56.7 µM
COLO 205 colon
  TGI: 42.4 µM
